Assay results published in ChEMBL document CHEMBL4007490, “New hydrazine and hydrazide quinoxaline 1,4-di-N-oxide derivatives: In silico ADMET, antiplasmodial and antileishmanial activity” (Bioorg Med Chem Lett, 2017).

How the values were obtained:
[1] = Cytotoxicity against human HepG2A16 cells after 48 hrs by MTT assay; assay type: cell-based
[2] = Selectivity index, ratio of CC50 for human HepG2A16 cells to IC50 for chloroquine/cycloguanil-resistant Plasmodium falciparum FCR3; assay type: toxicity; conditions: read-out: Ratio CC50/IC50
[3] = system: Plasmodium falciparum; experiment: Antiplasmodial activity against chloroquine-sensitive/sulfadoxine-resistant Plasmodium falciparum 3D7 by [3H]-hypoxanthine incorporation assay; assay type: functional
[4] = Selectivity index, ratio of CC50 for human HepG2A16 cells to IC50 for axenic amastigote form of Leishmania infantum MHOM/MA/67/ITMAP-263; assay type: toxicity; conditions: read-out: Ratio CC50/IC50
[5] = system: Plasmodium falciparum; experiment: Antiplasmodial activity against chloroquine/cycloguanil-resistant Plasmodium falciparum FCR3 by [3H]-hypoxanthine incorporation assay; assay type: functional; conditions: FCR-3/Gambia
[6] = system: Leishmania infantum; experiment: Antileishmanial activity against axenic amastigote form of Leishmania infantum MHOM/MA/67/ITMAP-263 assessed as parasite growth inhibition after 72 hrs by MTT assay; assay type: functional; conditions: MHOM/MA/67/ITMAP-263, 72 h

Compound | CC50 at 48 h [1] [µM] | selectivity ratio [2] | IC50 [3] [µM] | selectivity ratio [4] | IC50 [5] [µM] | IC50 [6] [µM]
Cc1c(/C=N/NC(=O)c2ccncc2)[n+]([O-])c2ccccc2[n+]1[O-] | 90.9 | < 0.9 | > 100 | < 0.9 | > 100 | > 100
COc1ccc(C(=O)N/N=C/c2c(C)[n+]([O-])c3ccccc3[n+]2[O-])cc1 | 66.6 | 2.22 | 27.8 | < 0.66 | 30 | > 100
Cc1c(/C=N/Nc2ccc(C(=O)O)cc2)[n+]([O-])c2ccccc2[n+]1[O-] | 373 | < 3.72 | > 100 | < 3.72 | > 100 | > 100
CC(=O)N/N=C/c1c(C)[n+]([O-])c2ccccc2[n+]1[O-] | 87.2 | < 0.87 | > 100 | < 0.87 | > 100 | > 100
Cc1c(C)[n+]([O-])c2cc(Cl)ccc2[n+]1[O-] | 228 | < 2.28 | > 100 | < 2.28 | > 100 | > 100
Cc1c(/C=N/NC(=O)c2ccccc2)[n+]([O-])c2ccccc2[n+]1[O-] | 40.7 | 1.11 | 55.7 | 0.68 | 36.5 | 59.1
Cc1c(C(F)(F)F)[n+]([O-])c2ccccc2[n+]1[O-] | 1.8 | 0.42 | 7.9 | 0.05 | 4.2 | 30.5
COc1ccc2c(c1)[n+]([O-])c(/C=N/Nc1c(Cl)cc(Cl)cc1Cl)c(C)[n+]2[O-] | 209 | < 2.09 | > 100 | < 2.08 | > 100 | > 100
Cc1c(/C=N/Nc2cccc(Cl)c2)[n+]([O-])c2ccccc2[n+]1[O-] | 47.3 | < 0.47 | > 100 | < 0.47 | > 100 | > 100
Cc1c(/C=N/Nc2ccnc3cc(Cl)ccc23)[n+]([O-])c2cc(Cl)ccc2[n+]1[O-] | > 241 | > 86.1 | 0.24 |  | 2.8 | > 100
Cc1c(/C=N/NC(=O)c2ccc(Cl)cc2)[n+]([O-])c2ccccc2[n+]1[O-] | 28.3 | 0.81 | 54.9 | 0.54 | 34.8 | 52.3
COc1ccc2c(c1)[n+]([O-])c(C)c(C)[n+]2[O-] | 744 | < 7.44 | > 100 | < 7.44 | > 100 | > 100
Cc1c(/C=N/Nc2c(Cl)cc(Cl)cc2Cl)[n+]([O-])c2ccccc2[n+]1[O-] | 124 | < 1.24 | > 100 | < 1.24 | > 100 | > 100
Cc1c(/C=N/Nc2ccccc2)[n+]([O-])c2ccccc2[n+]1[O-] | 35.4 | < 0.35 | > 100 | < 0.35 | > 100 | > 100
Cc1ccc(S(=O)(=O)N/N=C/c2c(C)[n+]([O-])c3ccccc3[n+]2[O-])cc1 | 241 | < 2.41 | 85.3 | 4.51 | > 100 | 53.4
Cc1c(/C=N/Nc2ccc(Cl)c(Cl)c2)[n+]([O-])c2ccccc2[n+]1[O-] | 551 | 6.32 | 76.7 | < 5.5 | 87.1 | > 100
COc1ccc2c(c1)[n+]([O-])c(/C=N/Nc1ccnc3cc(Cl)ccc13)c(C)[n+]2[O-] | > 244 | > 95.3 | 1.4 |  | 2.56 | > 100
Cc1c(/C=N/Nc2c(Cl)cc(Cl)cc2Cl)[n+]([O-])c2cc(Cl)ccc2[n+]1[O-] | 12.2 | 0.2 | > 100 | < 0.12 | 61.1 | > 100
Cc1c(C)[n+]([O-])c2ccccc2[n+]1[O-] | 322 | < 3.21 | > 100 | < 3.21 | > 100 | > 100
C[C@@H]1[C@H](O)[C@@H](C)/C=C/C=C/C=C/C=C/C=C/C=C/C=C/[C@H](O[C@@H]2O[C@H](C)[C@@H](O)[C@H](N)[C@@H]2O)C[C@@H]2O[C@](O)(C[C@@H](O)C[C@@H](O)[C@H](O)CC[C@@H](O)C[C@@H](O)CC(=O)O[C@H]1C)C[C@H](O)[C@H]2C(=O)O [AMPHOTERICIN B] |  |  |  |  |  | 0.05
